The text below walks through data of article PMC10023679, “Amide-to-ester substitution as a stable alternative to N-methylation for increasing membrane permeability in cyclic peptides” (Nature Communications, 2023).

Non-standard residues stand in square brackets, D forms with d. Residues, ends and D or L forms follow the SMILES beside them. NMeF = CN[C@@H](Cc1ccccc1)C(=O)O; PhLac = O=C(O)[C@@H](O)Cc1ccccc1; Hica(2S) = CC(C)C[C@H](O)C(=O)O; NMeL = CN[C@@H](CC(C)C)C(=O)O; dHica = CC(C)C[C@@H](O)C(=O)O; dNMeL = CN[C@H](CC(C)C)C(=O)O

Data set [1] can be described thus: in vitro. Format: in vitro ADME.
Data set [2] can be described thus: 1,9-decadiene-water distribution coefficient. Conditions: decadiene and aqueous buffer. Format: physicochemical.
A short description of data set [3]: Caco-2 assay (permeability across cell monolayers). Format: in vitro ADME. The conditions noted are these: Caco-2, 1 μM compounds in HBSS (pH 7.4) containing 10 mM HEPES and 1% DMSO, 3 h incubation at 37 °C, read-out: Caco-2 permeability Pa.
Data set [4] is described as follows: Stability in simulated gastric fluid (SGF). Format: in vitro ADME. Conditions: pH 1.2, 37 °C, at 4 h. The procedure:
The stability assay of peptides in SGF was conducted according to United States Pharmacopeia & National Formulary (USP 25-NF 20)[64] and the previous report[65] with some modifications as follows. SGF used in this study was prepared by dissolving pepsin (3.6 mg/mL) (Sigma, P7012, 3357 Unit/mg) in an aqueous solution of 2 mg/mL sodium chloride (NaCl) at pH 1.2. The solution was vortexed for 1 min, sonicated for 15 min, centrifuged at 20,000 × g for 10 min, and filtered before use. 57 μL of SGF was incubated at 37 °C for 15 min and 3 μL of 1 μM peptide solution in DMSO was added to the warmed […]. After 1, 2, or 4 h, 60 μL of ice-cold ultra-pure water containing 5% trifluoroacetic acid was added and 120 μL of 30% acetonitrile in ultra-pure water was added. The samples were filtered and injected into UPLC.
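Wherever Pe (PAMPA), CP1-Y1F-L2K series is given: filter plate membrane of 1% soybean lecithin in dodecane, donor and acceptor in 5% DMSO/PBS, incubated at 25 °C, peptide in both compartments measured by LC-MS.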

`CC(C)C[C@@H]1C(=O)N[C@H](C(C)C)C(=O)N[C@H](C)C(=O)N2CCC[C@@H]2C(=O)N[C@H](CC(C)C)C(=O)N[C@H](C(C)C)C(=O)N[C@H](C)C(=O)N2CCC[C@@H]2C(=O)N1C` (cyclo([dA][dP][dL][dV][dA][dP][dNMeL][dV])) gave a Papp at 16 h, 3 μM in data set [1] (PAMPA) of 0.01 ×10⁻⁶ cm/s.

For the compound `CC(C)C[C@@H]1C(=O)N[C@H](C(C)C)C(=O)N[C@H](C)C(=O)N2CCC[C@@H]2C(=O)O[C@H](CC(C)C)C(=O)N[C@H](C(C)C)C(=O)N[C@H](C)C(=O)N2CCC[C@@H]2C(=O)N1C` (cyclo([dA][dP][dNMeL][dV][dA][dP][dHica][dV])), in data set [1] (PAMPA), the Papp at 16 h, 3 μM amounted to 0.03 ×10⁻⁶ cm/s.

For `CC(C)C[C@@H]1NC(=O)[C@H](CC(C)C)N(C)C(=O)[C@@H](C(C)C)NC(=O)[C@H](C)NC(=O)[C@H](C)NC(=O)[C@H]2CCCN2C(=O)[C@@H](CC(C)C)NC(=O)[C@@H]2CCCN2C(=O)[C@H](CC(C)C)NC1=O` (relative stereo), the Papp at 16 h, 3 μM in data set [1] (PAMPA) is 0.1 ×10⁻⁶ cm/s.

The compound `CC(C)C[C@@H]1NC(=O)[C@H](CC(C)C)N(C)C(=O)[C@@H](C(C)C)NC(=O)[C@H](C)NC(=O)[C@H](C)OC(=O)[C@H]2CCCN2C(=O)[C@@H](CC(C)C)NC(=O)[C@@H]2CCCN2C(=O)[C@H](CC(C)C)NC1=O` (relative stereo) had a Papp at 16 h, 3 μM in data set [1] (PAMPA) of 1.1 ×10⁻⁶ cm/s.

Compound `CC(C)C[C@@H]1NC(=O)[C@@H](CC(C)C)NC(=O)[C@H](CCCCN)NC(=O)[C@H](Cc2ccccc2)N(C)C(=O)[C@H]2CCCN2C(=O)[C@H](CC(C)C)NC1=O` [CP1-Y1F-L2K NMe] (cyclo(K[dL]LL[dP][NMeF])) registered a Papp in data set [1] (PAMPA) below 0.00075 ×10⁻⁶ cm/s.

For the compound `CC(C)C[C@@H]1NC(=O)[C@@H](CC(C)C)NC(=O)[C@H](CCCCN)NC(=O)[C@H](Cc2ccccc2)OC(=O)[C@H]2CCCN2C(=O)[C@H](CC(C)C)NC1=O` [CP1-Y1F-L2K O] (cyclo(K[dL]LL[dP][PhLac])), the “Pe (PAMPA), CP1-Y1F-L2K series” value in data set [1] worked out at 4.9 ×10⁻⁶ cm/s. The compound also gave a Papp in data set [1] (PAMPA) of 0.0049 ×10⁻⁶ cm/s.

In data set [1] (PAMPA), `CC(C)C[C@@H]1NC(=O)[C@@H](CC(C)C)NC(=O)[C@H](CCCCN)NC(=O)[C@H](Cc2ccccc2)NC(=O)[C@H]2CCCN2C(=O)[C@H](CC(C)C)NC1=O` [CP1-Y1F-L2K] (cyclo(FK[dL]LL[dP])) returned a Papp below 0.0007 ×10⁻⁶ cm/s.

`CC(C)C[C@@H]1NC(=O)[C@@H](CC(C)C)NC(=O)[C@H](CO)NC(=O)[C@H](Cc2ccccc2)N(C)C(=O)[C@H]2CCCN2C(=O)[C@H](CC(C)C)NC1=O` [CP1-Y1F-L2S NMe] (cyclo(LL[dP][NMeF]S[dL])) showed a Papp in data set [1] (PAMPA) of 0.5 ×10⁻⁶ cm/s.

`CC(C)C[C@@H]1NC(=O)[C@@H](CC(C)C)NC(=O)[C@H](CO)NC(=O)[C@H](Cc2ccccc2)OC(=O)[C@H]2CCCN2C(=O)[C@H](CC(C)C)NC1=O` [CP1-Y1F-L2S O] (cyclo(LL[dP][PhLac]S[dL])): the Papp in data set [1] (PAMPA) stood at 4.1 ×10⁻⁶ cm/s.

In turn, `CC(C)C[C@@H]1NC(=O)[C@@H](CC(C)C)NC(=O)[C@H](CO)NC(=O)[C@H](Cc2ccccc2)NC(=O)[C@H]2CCCN2C(=O)[C@H](CC(C)C)NC1=O` [CP1-Y1F-L2S] (cyclo(FS[dL]LL[dP])) displayed a Papp in data set [1] (PAMPA) of 0.3 ×10⁻⁶ cm/s.

For `CC(=O)N[C@@H](Cc1ccccc1)C(=O)O[C@@H](Cc1ccccc1)C(N)=O` [D1], in data set [1] (PAMPA, pH 7.4), the Papp was 1.2 ×10⁻⁶ cm/s. Moreover, the “log Ddec/w (1,9-decadiene–water distribution coefficient)” value (“log Ddec/w” below) in data set [2] is recorded as “–1.17 ± 0.01”.

In data set [1] (PAMPA), `CC(C)C[C@@H]1NC(=O)[C@H]2CCCN2C(=O)[C@H](CC(C)C)N(C)C(=O)[C@@H](C(C)C)NC(=O)[C@H](CC(C)C)NC(=O)[C@H]2CCCN2C(=O)[C@H](CC(C)C)N(C)C(=O)[C@@H](C(C)C)NC1=O` [D8.21, reference compound] (cyclo(L[dV][NMeL][dP]L[dV][NMeL][dP])) had a Papp at 16 h, 3 μM of 8.2 ×10⁻⁶ cm/s.

In data set [1] (PAMPA), `CC(C)C[C@@H]1NC(=O)[C@H]2CCCN2C(=O)[C@H](CC(C)C)NC(=O)[C@@H](C(C)C)NC(=O)[C@H](CC(C)C)NC(=O)[C@H]2CCCN2C(=O)[C@H](CC(C)C)N(C)C(=O)[C@@H](C(C)C)NC1=O` [D8.21-amide] (cyclo(L[dP]L[dV][NMeL][dP]L[dV])) showed a Papp at 16 h, 3 μM of 1.6 ×10⁻⁶ cm/s.

Compound `CC(C)C[C@@H]1NC(=O)[C@H]2CCCN2C(=O)[C@H](CC(C)C)OC(=O)[C@@H](C(C)C)NC(=O)[C@H](CC(C)C)NC(=O)[C@H]2CCCN2C(=O)[C@H](CC(C)C)N(C)C(=O)[C@@H](C(C)C)NC1=O` [D8.21-ester] (cyclo(L[dV][NMeL][dP]L[dV][Hica(2S)][dP])) showed a Papp at 16 h, 3 μM in data set [1] (PAMPA) of 5.8 ×10⁻⁶ cm/s.

Turning to `CC(C)C[C@@H]1C(=O)N[C@H](C(C)C)C(=O)N[C@H](C)C(=O)N2CCC[C@@H]2C(=O)N(C)[C@H](CC(C)C)C(=O)N[C@H](C(C)C)C(=O)N[C@H](C)C(=O)N2CCC[C@@H]2C(=O)N1C` [D8.31, reference compound] (cyclo([dA][dP][dNMeL][dV][dA][dP][dNMeL][dV])), in data set [1] (PAMPA), the Papp at 16 h, 3 μM stood at 0.2 ×10⁻⁶ cm/s.

For `CC(C)C[C@@H]1NC(=O)[C@@H](CC(C)C)OC(=O)[C@H](CC(C)C)NC(=O)[C@H](Cc2ccc(O)cc2)NC(=O)[C@H]2CCCN2C(=O)[C@H](CC(C)C)NC1=O` [DP3] (cyclo(LL[dP]YL[dHica])), the Papp in data set [1] (PAMPA) is 1.3 ×10⁻⁶ cm/s; in data set [3], 0.2 ×10⁻⁶ cm/s.

As to `CC(C)C[C@@H]1NC(=O)[C@H](Cc2ccc(O)cc2)NC(=O)[C@H]2CCCN2C(=O)[C@H](CC(C)C)NC(=O)[C@H](CC(C)C)OC(=O)[C@@H](CC(C)C)NC1=O` [DP4] (cyclo(L[dL][Hica(2S)]L[dP]Y)), the Papp in data set [1] (PAMPA) came to 4.2 ×10⁻⁶ cm/s; in data set [3], 1.2 ×10⁻⁶ cm/s.

On to `CC(C)C[C@@H]1NC(=O)[C@H](Cc2ccc(O)cc2)NC(=O)[C@H]2CCCN2C(=O)[C@H](CC(C)C)OC(=O)[C@H](CC(C)C)NC(=O)[C@@H](CC(C)C)NC1=O` [DP5] (cyclo(L[dL]L[Hica(2S)][dP]Y)), for which the results for the Papp in data set [1] (PAMPA) and in data set [3] were 4.4 ×10⁻⁶ cm/s and 2.8 ×10⁻⁶ cm/s, respectively.

Consider `CC(=O)N[C@@H](Cc1ccccc1)C(=O)N(C)[C@@H](Cc1ccccc1)C(N)=O` [M1] (Ac-Phe-[NMeF]-NH2), for which the “log Ddec/w” value in data set [2] is “–1.24 ± 0.01”.

As to `CC(=O)N[C@@H](CC(C)C)C(=O)N(C)[C@@H](Cc1ccccc1)C(N)=O` [M2] (Ac-Leu-[NMeF]-NH2), the Papp in data set [1] (PAMPA, pH 7.4) was found to be 0.2 ×10⁻⁶ cm/s. The “log Ddec/w” value in data set [2] is given as “–1.62 ± 0.02”.

Take `CC(=O)N[C@@H](CC(C)C)C(=O)N(C)[C@@H](CC(C)C)C(N)=O` [M3]: the Papp in data set [1] (PAMPA, pH 7.4) stood at 0.1 ×10⁻⁶ cm/s. The “log Ddec/w” value in data set [2] was “–2.13 ± 0.02”.

With `CC(C)C[C@@H]1NC(=O)[C@@H](CC(C)C)NC(=O)[C@H](CC(C)C)N(C)C(=O)[C@H](Cc2ccc(O)cc2)NC(=O)[C@H]2CCCN2C(=O)[C@H](CC(C)C)NC1=O` [MP2] (cyclo(LL[dP]Y[NMeL][dL])), the Papp was 1 ×10⁻⁶ cm/s in data set [1] (PAMPA) and 0.3 ×10⁻⁶ cm/s in data set [3].

Consider `CC(C)C[C@@H]1NC(=O)[C@@H](CC(C)C)N(C)C(=O)[C@H](CC(C)C)NC(=O)[C@H](Cc2ccc(O)cc2)NC(=O)[C@H]2CCCN2C(=O)[C@H](CC(C)C)NC1=O` [MP3] (cyclo(LL[dP]YL[dNMeL])), for which, in data set [1] (PAMPA), the Papp at 16 h, 2 μM was determined as 0.6 ×10⁻⁶ cm/s. For the same compound, the Papp at 3 h, 1 μM in data set [3] (human) came out at 0.2 ×10⁻⁶ cm/s.

Take `CC(C)C[C@@H]1NC(=O)[C@H](Cc2ccc(O)cc2)NC(=O)[C@H]2CCCN2C(=O)[C@H](CC(C)C)NC(=O)[C@H](CC(C)C)N(C)C(=O)[C@@H](CC(C)C)NC1=O` [MP4] (cyclo(L[dL][NMeL]L[dP]Y)): the Papp was 2.5 ×10⁻⁶ cm/s in data set [1] (PAMPA) and 0.5 ×10⁻⁶ cm/s in data set [3].

Regarding `CC(C)C[C@@H]1NC(=O)[C@H](Cc2ccc(O)cc2)NC(=O)[C@H]2CCCN2C(=O)[C@H](CC(C)C)N(C)C(=O)[C@H](CC(C)C)NC(=O)[C@@H](CC(C)C)NC1=O` [MP5] (cyclo(L[NMeL][dP]YL[dL])), the results for the Papp in data set [1] (PAMPA) and in data set [3] were 1.7 ×10⁻⁶ cm/s and 1.2 ×10⁻⁶ cm/s, respectively.

Regarding `CC(=O)N[C@@H](Cc1ccccc1)C(=O)N[C@@H](Cc1ccccc1)C(N)=O` [P1] (Ac-Phe-Phe-NH2), in data set [2], the “log Ddec/w” value was “–2.75 ± 0.01”.

As for `C[C@H](N)C(=O)NCC(=O)N[C@H]1CSSC[C@@H](C(=O)O)NC(=O)[C@H](CO)NC(=O)[C@H]([C@@H](C)O)NC(=O)[C@H](Cc2ccccc2)NC(=O)[C@H]([C@@H](C)O)NC(=O)[C@H](CCCCN)NC(=O)[C@H](Cc2c[nH]c3ccccc23)NC(=O)[C@H](Cc2ccccc2)NC(=O)[C@H](Cc2ccccc2)NC(=O)[C@H](CC(N)=O)NC(=O)[C@H](CCCCN)NC1=O` [somatostatin, reference compound], the “Fraction degraded in SGF” value in data set [4] (SGF-containing pepsin) was “more than 90%”. Also, the metabolised at 4 h, 0.05 μM in data set [4] (simulated gastric fluid (SGF) containing pepsin, read-out: Fraction degraded in SGF) is 98%.
